Source: US20220211606A1, “LIQUID COMPOSITION FOR INFLUENCING THE MICROBIOTA ON A SUBJECT'S SKIN COMPRISING CHITOSAN” (Medoderm GmbH, priority 2019, published 2022)

Experiments:
Staphylococcus aureus [1] = assay: Microbiome agar matrix test, surface pathogen; assay type: cell-based; details: 20 μl on agar surface; 37° C. over night; inoculum 2.0×10^6 CFU
Procedure: For the present experiment, the above microbiome organisms are seeded out on an agar plate. Afterwards the organisms are embedded in a special microbiome agar matrix to simulate the epidermis layers. […] In the next step the test formulation is applied onto small areas on the surface and the test setup is incubated at 37° C. over night. After incubation, growth of the matrix-embedded microbiome organisms and superficial Staphylococcus aureus is used for the assessment of an influence of the test formulation on the microbiome organisms. […] If the applied product also causes a growth inhibition of the microbiome organisms, the product is assessed to have negative influence on the human microbiome. A disinfectant agent (isopropanol:water 70:30) is used as […] to inhibit growth of the pathogen as well as the microbiome organisms. Buffer solution (used for dilution, if applied; 0.9% (w/w) NaCl in water) is used as a negative control. The sample volume of test formulation is 20 μl. The inoculum microbiome contains 2.0×10^6 CFU (colony forming units). The inoculum pathogen was set at 2.0×10^6 CFU.

Staphylococcus aureus [2] = assay: Repopulation of disinfected human skin (Rodac contact plates), pathogen; assay type: in vivo; details: upper arm disinfected with 70% isopropanol; 0, 1 h, 2 h, 4 h, 6 h; 100 μl on approx. 50 cm^2
[3] = system: endogenous skin microflora; assay: Repopulation of disinfected human skin after contact with worn clothing (Rodac contact plates); assay type: in vivo; details: after 6 h test period, 10 minutes contact with worn clothing, sampled 1 h after removal
Procedure: The test germ corresponded to endogenous skin microflora. […] The sample size was approx. 50 cm^2 skin surface area and the sample volume 100 μl. Contact time was 0, 1 h, 2 h, 4 h, 6 h, after contact and 1 h after contact.
Rodac contact plates were used for sampling of microorganisms from human skin (upper arm) before and after treatment. The upper arm region was chosen to prevent contamination by touching and clothing. Disinfection was performed with 70% isopropanol.
After the 6 h test period, the test areas were exposed to worn clothing for 10 minutes, resulting in a typical transfer of microorganism from clothing to the skin surface (time point directly after contact). 1 h after removal of clothing the bacteria were collected from the test areas aby Rodac contact plates.

Compound: CC(C)O [Disinfection, isopropanol]
- growth of superficial Staphylococcus aureus (Staphylococcus aureus [1]): neither growth on the surface
- Staphylococcus aureus on the test area (Staphylococcus aureus [2]): only found on the “Disinfection” test area
- microorganisms collected 1 h after exposure to worn clothing [3]: also showed pathogenic organisms (gram-negative bacteria=big colonies)
